Experimental data from ChEMBL document CHEMBL1799912, “Benzodihydrofurans from Cyperus teneriffae” (J Nat Prod, 2011).
Calls of active or inactive are those of the source. The calls are words filed in the database; no cut-off is given here.

Experiment: Antiestrogenic activity in human MCF7/BUS cells assessed as inhibition of 17beta-estradiol-induced cell proliferation at 10 uM after 6 days by E-Screen test
Assay type: functional, cell-based
For `COc1ccc(-c2oc3cc(O)cc(O)c3c(=O)c2O)cc1O`, the Activity was “inactive”.
With `O=C1CC(c2ccc(O)c(O)c2)Oc2cc(O)cc(O)c21` (configuration not stated) the Activity was “inactive”.
With `COc1cc(OC)c2c(c1)O/C(=C\c1ccc(OC)c(O)c1)C2=O` the Activity was “inactive”.
With `COc1cc(O)c(CC=C(C)C)c(O)c1C(C)=O` the Activity was “inactive”.
With `COc1cc(OC)c2c(c1)O/C(=C\c1ccc(OC)c(OC)c1)C2=O` the Activity was “inactive”.
With `C=C(C)[C@@H]1Cc2c(c(OC)c3occ(C)c3c2OC)O1` the Activity was “inactive”.
With `C=C(C)[C@@H]1Cc2c(c(OC)c(O)c(C(C)=O)c2OC)O1` the Activity was “inactive”.
